Experimental findings from US6872735B2, “LFA-1 antagonist compounds” (Genentech, Inc., priority 2000, dated 2005) are described below.

A short description of series [1]: Serum/plasma protein binding (ultrafiltration, LC/MS-MS). In kind it is in vitro ADME. To be noted: pH 7.4, 37° C., Centrifree ultrafiltration. Here is the method: Binding of test compounds was performed according to procedures described in Borga et al (Journal of Pharmacokinetics & Biopharmaceutics, 1997, 25(1):63-77) and Godolphin et al (Therapeutic drug monitoring, 1983, 5:319-23). Duplicate samples of 10 μl of test compound stock solution (1 μg/μL) was spiked into 1 mL of either buffer or serum/plasma adjusted to pH 7.4 using CO2 at room temperature. Samples were equilibrated by incubating vials in a water bath with shaker at 37° C. for 15 minutes. 200 μl of the buffer spiked sample was saved as prefiltrate. 800 μl of buffer spiked samples and 1 ml of serum spiked samples were centrifuged at 1500 g, 37° C., for 30 minutes in a Centrifree ultrafiltration device (Amicon Inc.). Pre and post-filtrates were then analyzed by LC/MS-MS and percent binding of test compound to serum/plasma protein was determined from the post and prefiltrates accounting for any non-specific binding determined from the buffer control.

The target in series [2] is recombinant human LFA-1 (LFA-1:ICAM-1) (Homo sapiens, UniProt P05107+P20701). Kind of series: PLM2 antibody capture LFA-1:ICAM-1 assay.
recombinant human LFA-1 (LFA-1:ICAM-1), sequence (P20701 26-1170): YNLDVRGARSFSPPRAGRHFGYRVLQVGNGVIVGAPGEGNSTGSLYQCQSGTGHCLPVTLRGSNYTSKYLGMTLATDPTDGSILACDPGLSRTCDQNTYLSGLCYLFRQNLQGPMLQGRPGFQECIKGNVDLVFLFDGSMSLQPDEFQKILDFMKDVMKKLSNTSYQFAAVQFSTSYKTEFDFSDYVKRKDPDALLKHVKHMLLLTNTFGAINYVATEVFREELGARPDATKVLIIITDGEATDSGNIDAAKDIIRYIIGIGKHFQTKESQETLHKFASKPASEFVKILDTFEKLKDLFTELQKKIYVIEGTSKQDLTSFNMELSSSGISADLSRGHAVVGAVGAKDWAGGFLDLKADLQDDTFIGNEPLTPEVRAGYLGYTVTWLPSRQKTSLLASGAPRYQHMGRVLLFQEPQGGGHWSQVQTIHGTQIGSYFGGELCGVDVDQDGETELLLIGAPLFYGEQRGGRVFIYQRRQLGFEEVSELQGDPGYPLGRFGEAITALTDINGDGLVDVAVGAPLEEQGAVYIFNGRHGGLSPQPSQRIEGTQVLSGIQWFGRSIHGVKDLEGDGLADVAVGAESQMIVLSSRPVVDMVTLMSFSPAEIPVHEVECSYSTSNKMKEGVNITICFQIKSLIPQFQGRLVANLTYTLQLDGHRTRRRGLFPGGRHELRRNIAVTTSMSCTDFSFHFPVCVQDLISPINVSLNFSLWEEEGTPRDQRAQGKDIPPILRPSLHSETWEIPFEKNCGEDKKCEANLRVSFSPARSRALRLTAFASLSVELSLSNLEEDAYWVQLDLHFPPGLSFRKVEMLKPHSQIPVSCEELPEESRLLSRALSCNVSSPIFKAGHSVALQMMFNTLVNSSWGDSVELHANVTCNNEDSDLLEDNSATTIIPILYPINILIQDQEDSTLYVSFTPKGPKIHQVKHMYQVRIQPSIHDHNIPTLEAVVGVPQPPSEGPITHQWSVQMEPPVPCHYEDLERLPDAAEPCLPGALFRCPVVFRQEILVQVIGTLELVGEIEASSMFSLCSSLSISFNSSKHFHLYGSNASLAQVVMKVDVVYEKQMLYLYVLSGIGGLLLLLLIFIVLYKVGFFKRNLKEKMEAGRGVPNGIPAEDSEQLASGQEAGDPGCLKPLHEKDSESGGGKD
recombinant human LFA-1 (LFA-1:ICAM-1), sequence (P05107 23-769): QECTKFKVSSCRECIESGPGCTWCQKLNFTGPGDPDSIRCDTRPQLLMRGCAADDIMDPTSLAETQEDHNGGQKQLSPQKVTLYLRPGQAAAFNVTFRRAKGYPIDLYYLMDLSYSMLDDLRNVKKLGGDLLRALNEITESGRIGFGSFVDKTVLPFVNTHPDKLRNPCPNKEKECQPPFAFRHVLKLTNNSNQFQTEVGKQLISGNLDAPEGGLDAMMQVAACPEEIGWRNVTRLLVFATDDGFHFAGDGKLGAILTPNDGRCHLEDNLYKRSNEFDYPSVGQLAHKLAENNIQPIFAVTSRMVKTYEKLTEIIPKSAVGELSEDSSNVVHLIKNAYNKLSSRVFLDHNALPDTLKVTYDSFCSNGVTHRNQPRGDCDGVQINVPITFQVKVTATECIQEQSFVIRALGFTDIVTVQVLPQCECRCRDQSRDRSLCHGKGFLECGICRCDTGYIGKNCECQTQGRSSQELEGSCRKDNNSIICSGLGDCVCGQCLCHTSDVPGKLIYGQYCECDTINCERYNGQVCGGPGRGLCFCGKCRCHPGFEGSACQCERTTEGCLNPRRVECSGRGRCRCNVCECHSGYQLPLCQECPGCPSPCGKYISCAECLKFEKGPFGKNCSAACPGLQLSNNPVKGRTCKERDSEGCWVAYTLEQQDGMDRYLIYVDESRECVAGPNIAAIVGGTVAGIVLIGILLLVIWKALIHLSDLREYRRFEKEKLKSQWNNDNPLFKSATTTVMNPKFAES
Description: The plates are blocked with 0.5% BSA in assay buffer (0.02M Hepes, 0.15M NaCl, and 1 mM MnCl2) 1 h at room temperature. Plates are washed with 50 mM Tris pH 7.5, 0.1M NaCl, 0.05% Tween 20 and 1 mM MnCl2. Purified full-length recombinant human LFA-1 protein is diluted to 2 μg/ml in assay buffer and 100 μl/well is added to plates and incubated 1 h at 37° C. Plates are washed 3×. 50 μl/well inhibitors, appropriately diluted in assay buffer, are added to a 2× final concentration and incubated for 30′ at 37° C. […] Plates are washed and bound ICAM-Ig is detected with Goat anti-HuIgG(Fc)-HRP for 1 h at room temperature. Plates are washed and developed with 100 μl/well TMB substrate for 5-10′ at room temperature.

As to `O=C(/C=C/c1ccco1)NCc1cc(Cl)c(C(=O)N[C@@H](CNC(=O)C2CCNCC2)C(=O)O)c(Cl)c1` [Compound 3], the fraction unbound (usually free concentration divided by total concentration) at 15 min, 10 µg/mL in series [1] is 0.192. Moreover, the IC50 (in general, the concentration at which inhibition is half-maximal) in series [2] stood at 11 nM.

The compound `O=C(/C=C/c1ccco1)NCc1cc(Cl)c(C(=O)N[C@@H](CNC(=O)[C@@H]2CCCN2)C(=O)O)c(Cl)c1` [Compound 4] showed a fraction unbound at 15 min, 10 µg/mL in series [1] of 0.171. Also, the IC50 in series [2] was 4 nM. For `O=C(/C=C/c1ccco1)NCc1cc(Cl)c(C(=O)N[C@@H](CNC(=O)[C@H]2CCCN2)C(=O)O)c(Cl)c1` [Compound 5] the same measures were 0.169 and 8 nM.

In the case of `O=C(/C=C/c1ccco1)NCc1cc(Cl)c(C(=O)N[C@@H](CNC(=O)[C@@H]2CSCN2)C(=O)O)c(Cl)c1` [Compound 6], the fraction unbound at 15 min, 10 µg/mL in series [1] was 0.0457. Besides, the IC50 in series [2] turned out to be 7 nM. For the compound `O=C(/C=C/c1ccco1)NCc1cc(Cl)c(C(=O)N[C@@H](CNC(=O)[C@@H]2CCCCN2)C(=O)O)c(Cl)c1` [Compound 9], in series [1], the free fraction (fraction unbound) at 15 min, 10 µg/mL is 0.228. Also, the IC50 in series [2] was determined as 2 nM. The like results for `O=C(/C=C/c1ccco1)NCc1cc(Cl)c(C(=O)N[C@@H](CNC(=O)[C@H]2C[C@H](O)CN2)C(=O)O)c(Cl)c1` [Compound 10] were, in that order, 0.341 and 3 nM. The like results for `O=C(/C=C/c1ccco1)NCc1cc(Cl)c(C(=O)N[C@@H](CNC(=O)[C@H]2C[C@@H](O)CN2)C(=O)O)c(Cl)c1` [Compound 12] were, in that order, 0.205 and 2 nM. `C[C@H]1CCN[C@@H]1C(=O)NC[C@H](NC(=O)c1c(Cl)cc(CNC(=O)/C=C/c2ccco2)cc1Cl)C(=O)O` [Compound 13]: the fraction unbound at 15 min, 10 µg/mL in series [1] was 0.224. For the same compound, in series [2], the IC50 came to 4 nM.

In series [1], `O=C(/C=C/c1ccco1)NCc1cc(Cl)c(C(=O)N[C@@H](CNC(=O)[C@@H]2C[C@@H](O)CN2)C(=O)O)c(Cl)c1` [Compound 14] gave a fraction unbound at 15 min, 10 µg/mL of 0.274. Besides, the IC50 in series [2] was 2 nM. For `O=C(/C=C/c1ccco1)NCc1cc(Cl)c(C(=O)N[C@@H](CNC(=O)[C@H]2CSCN2)C(=O)O)c(Cl)c1` [Compound 15] the same measures were 0.0749 and 4 nM. In the case of `CC(=O)N1CCC[C@H]1C(=O)NC[C@H](NC(=O)c1c(Cl)cc(CNC(=O)/C=C/c2ccco2)cc1Cl)C(=O)O` [Compound 17], the fraction unbound at 15 min, 10 µg/mL in series [1] is 0.154. In addition, the IC50 in series [2] turned out to be 3 nM. The like results for `CN(C[C@H](NC(=O)c1c(Cl)cc(CNC(=O)/C=C/c2ccco2)cc1Cl)C(=O)O)C(=O)[C@@H]1CCCN1` [Compound 35] were, in that order, 0.486 and 9 nM. The like results for `O=C(N[C@@H](CNC(=O)[C@@H]1CSCN1)C(=O)O)c1c(Cl)cc(C(O)CCc2cccc(O)c2)cc1Cl` (stereo partly drawn) [Compound 36] were, in that order, 0.0716 and 2 nM. On to `O=C(N[C@@H](CNC(=O)[C@H]1C[C@@H](O)CN1)C(=O)O)c1c(Cl)cc(C(O)CCc2cccc(Cl)c2)cc1Cl` (stereo partly drawn) [Compound 37], for which the fraction unbound at 15 min, 10 µg/mL in series [1] is 0.0681. Compound `O=C(/C=C/c1ccco1)NCc1cc(Cl)c(C(=O)N[C@@H](CNC(=O)[C@@H]2CSC(=O)N2)C(=O)O)c(Cl)c1` [Compound 38] had a fraction unbound at 15 min, 10 µg/mL in series [1] of 0.0671. The IC50 in series [2] amounted to 12 nM.

For `O=C(/C=C/c1ccco1)NCc1cc(Cl)c(C(=O)N[C@@H](CNC(=O)[C@@H]2CSC(=S)N2)C(=O)O)c(Cl)c1` [Compound 40], in series [1], the fraction unbound at 15 min, 10 µg/mL is 0.0307. In addition, the half-inhibitory concentration (IC50) in series [2] came to 2 nM.

Compound `O=C(/C=C/c1ccco1)NCc1cc(Cl)c(C(=O)N[C@@H](CNC(=O)[C@H]2NCC[C@@H]2O)C(=O)O)c(Cl)c1` [Compound 41] showed a fraction unbound at 15 min, 10 µg/mL in series [1] of 0.152. The half-inhibitory concentration (IC50) in series [2] was found to be 3 nM.

The compound `O=C(/C=C/c1ccco1)NCc1cc(Cl)c(C(=O)N[C@@H](CNC(=O)C2CSCN2)C(=O)O)c(Cl)c1` (stereo partly drawn) [Compound 42] showed a fraction unbound at 15 min, 10 µg/mL in series [1] of 0.086. In series [2], the IC50 was 3 nM.

As for `CC1CC[C@@H](C(=O)NC[C@H](NC(=O)c2c(Cl)cc(CNC(=O)/C=C/c3ccco3)cc2Cl)C(=O)O)N1` (stereo partly drawn) [Compound 44], the fraction unbound at 15 min, 10 µg/mL in series [1] was 0.17. In series [2], the IC50 turned out to be 2 nM. For `O=C(/C=C/c1ccco1)NCc1cc(Cl)c(C(=O)N[C@@H](CNC(=O)C2CCCO2)C(=O)O)c(Cl)c1` (stereo partly drawn) [Compound 51], the fraction unbound at 15 min, 10 µg/mL in series [1] was 0.072. Besides, the IC50 in series [2] turned out to be 5 nM.
